Reference: patent publication US20120232043A1, “LUBIPROSTONE FOR OBSTETRICAL OR GYNECOLOGICAL APPLICATIONS” (CEMAG, priority 2009, published 2012)

Tested on: women requesting early pregnancy termination (<64 days of amenorrhea)
Test: Early pregnancy termination in women: oral mifepristone followed by oral lubiprostone
Format: in vivo
Conditions: twelve women, 200 mg mifepristone once orally, followed 24 hours later by oral lubiprostone 8 μg twice daily for 2 consecutive days
Description: Twelve women requesting early pregnancy termination (<64 days of amenorrhea) have received 200 mg mifepristone once, orally followed 24 hours later by the oral administration of lubiprostone (8 μg twice daily for 2 consecutive days). Efficacy rate (i.e. complete pregnancy termination, without need for surgical procedure) was […]. In one person, ovular fragments had to be removed at the uterine os with a forceps. Median bleeding time was 8 days. There was no specific adverse event except mild diarrhea in 3 subjects.

CCCCC(F)(F)[C@@]1(O)CC[C@H]2[C@@H](CC(=O)[C@@H]2CCCCCCC(=O)O)O1 [lubiprostone, 7-[(2R,4aR,5R,7aR)-2-(1,1-difluoropentyl)-2-hydroxy-6-oxo-3,4,4a,5,7,7a-hexahydrocyclopenta[b]pyran-5-yl]heptanoic acid]
Efficacy rate (i.e. complete pregnancy termination, without need for surgical procedure) (<64 days of amenorrhea): 97% | Adverse event: mild diarrhea (no other specific adverse event): 3 subjects | Median bleeding time: 8 days | Ovular fragments had to be removed at the uterine os with a forceps: one
